Test results from patent US7029857B1, “Processes for obtaining compounds employing SNORF72 receptors” (H. Lundbeck A/S, priority 1999, dated 2006).
No end group written: not given here.

Assays:
SNORF72 [1] = target: T1, SNORF72 (Homo sapiens, UniProt Q9GZQ4, A395T); experiment: Displacement of [125I]rat NMU-23 binding in SNORF72-transfected COS-7 membranes; conditions: binding affinity, SNORF72-transfected COS-7 cells (Table 1A); read-out: SNORF72 Avg Ki
T1 construct: expressed in transfected cells; host or cells: COS-7 (transient, DEAE-dextran)
Protocol: The specifics of preparing such cell membranes may in some cases be determined by the nature of the ensuing assay but typically involve harvesting whole cells and disrupting the cell pellet by sonication in ice cold buffer (e.g. 20 mM Tris HCl, mM EDTA, pH 7.4 at 4° C.). The resulting crude cell lysate is cleared of cell debris by low speed centrifugation at 200×g for 5 min at 4° C. The cleared supernatant is then centrifuged at 40,000×g for 20 min at 4° C., and the resulting membrane pellet is washed by suspending in ice cold buffer and repeating the high speed centrifugation step. The final washed membrane pellet is resuspended in assay buffer. Protein concentrations are determined by the method of Bradford (1976) using bovine serum albumin as a standard. The membranes may be used immediately or frozen for later use.
Radioligand binding assays were performed by diluting membranes prepared from cells expressing the receptor in 50 mM Tris buffer (pH=7.4 at 0° C.) containing 0.1% bovine serum albumin (Sigma), aprotinin (0.005 mg/ml, Boehringer Mannheim) and bestatin (0.1 mM, Sigma) as protease inhibitors. The final protein concentration in the assay was 12–40 μg/ml. […] The bound ligand was separated from free by filtration through GF/B filters presoaked in 0.5% polyethyleneimine (PEI), using a Tomtec (Wallac) vacuum filtration device. After addition of Ready Safe (Beckman) scintillation fluid, bound radioactivity was quantitated using a Trilux (Wallac) scintillation counter (approximately 40% counting efficiency of bound counts). Data was fit to non-linear curves using GraphPad Prism.
In this manner, agonist or antagonist compounds that bind to the receptor may be identified as they inhibit the binding of the labeled ligand to the membrane protein of cells expressing the said receptor. Non-specific binding was defined as the amount of radioactivity remaining after incubation of membrane protein in the presence of 100 nM of the unlabeled peptide corresponding to the radioligand used. In equilibrium saturation binding assays membrane preparations or intact cells transfected with the receptor are incubated in the presence of increasing concentrations of the labeled compound to determine the binding affinity of the labeled ligand.

SNORF62 = target: T2, SNORF62 (Homo sapiens, UniProt Q9HB89); experiment: Inositol phosphate (IP) release in SNORF62-transfected COS-7 cells; format: cell-based; parameters: The SNORF62 cDNA codes for a protein of 426 amino acids; expressed in transfected cells; host or cells: COS-7 (transient, DEAE-dextran)
T2 sequence (Q9HB89 1-426): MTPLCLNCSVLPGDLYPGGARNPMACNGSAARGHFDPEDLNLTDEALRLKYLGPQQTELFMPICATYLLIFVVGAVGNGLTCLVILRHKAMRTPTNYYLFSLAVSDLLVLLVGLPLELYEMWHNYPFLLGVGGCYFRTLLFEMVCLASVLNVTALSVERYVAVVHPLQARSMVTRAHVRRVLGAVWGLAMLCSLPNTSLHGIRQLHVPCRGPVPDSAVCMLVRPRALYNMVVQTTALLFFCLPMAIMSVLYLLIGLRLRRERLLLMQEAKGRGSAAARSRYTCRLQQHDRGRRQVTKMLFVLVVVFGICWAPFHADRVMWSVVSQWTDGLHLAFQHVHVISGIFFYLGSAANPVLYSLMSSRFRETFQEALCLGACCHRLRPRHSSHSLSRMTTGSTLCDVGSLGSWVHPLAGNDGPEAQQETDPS
Protocol: Human SNORF62 receptor-mediated activation and human SNORF72 receptor-mediated activation of the inositol phosphate (IP) second messenger pathways were assessed by radiometric measurement of IP products.
For example, in a 96 well microplate format assay, COS-7 cells expressing the receptor of interest were plated at a density of 70,000 cells per well and allowed to incubate for 24 hours. The cells were then labeled with 0.5 μCi [^3H]myo-inositol overnight at 37° C., 5% CO2. Immediately before the assay, the medium was removed and replaced with 180 μL of Phosphate-Buffered Saline (PBS) containing 10 mM LiCl. The plates were then incubated for 20 min at 37° C., 5% CO2. Following the incubation, the cells were challenged with agonist (20 μl/well; 10× concentration) for 30 min at 37° C. The challenge was terminated by the addition of 100 μL of 5% v/v trichloroacetic acid, followed by incubation at 4° C. for greater than 30 minutes. Total IPs were isolated from the lysate by ion exchange chromatography. Briefly, the lysed contents of the wells were transferred to a Multiscreen HV filter plate (Millipore) containing Dowex AG1-X8 (200–400 mesh, formate form). The filter plates were prepared adding 100 μL of Dowex AG1-X8 suspension (50% v/v, water: resin) to each well. The filter plates were placed on a vacuum manifold to wash or elute the resin bed. Each well was first washed 2 times with 200 μl of 5 mM myo-inositol. Total [^3H]inositol phosphates were eluted with 75 μl of 1.2M ammonium formate/0.1M formic acid solution into 96-well plates. 200 μL of scintillation cocktail was added to each well, and the radioactivity was determined by liquid scintillation counting.

vector-transfected cells = experiment: Intracellular Ca2+ release in vector (mock)-transfected COS-7 cells; format: cell-based; conditions: mock COS-7 cells
Protocol: A typical protocol for the DEAE-dextran method as applied to COS-7 and HEK293 cells is described as follows. Cells to be used for transfection are split 24 hours prior to the transfection to provide flasks which are 70–80% confluent at the time of transfection. Briefly, 8 μg of receptor DNA plus 8 μg of any additional DNA needed (e.g. Gα protein expression vector, reporter construct, antibiotic resistance marker, mock vector, etc.) are added to 9 ml of complete DMEM plus DEAE-dextran mixture (10 mg/ml in PBS). Cells plated into a T225 flask (sub-confluent) are washed once with PBS and the DNA mixture is added to each flask. The cells are allowed to incubate for 30 minutes at 37° C., 5% CO2. Following the incubation, 36 ml of complete DMEM with 80 μM chloroquine is added to each flask and allowed to incubate an additional 3 hours. The medium is then aspirated and 24 ml of complete medium containing 10% DMSO for exactly 2 minutes and then aspirated. […]
The compounds of interest are diluted in wash buffer (Hank's BSS (without phenol red), 20 mM HEPES, 2.5 mM probenecid) to a 4× final concentration and aliquoted into a clear v-bottom plate (Nunc). […] Compounds are added to the cell plates and responses are measured using the FLIPR™ instrument. The data are then collected and analyzed using the FLIPR™ software and Graphpad Prism. […]

SNORF72 [2] = target: T1, SNORF72; experiment: Intracellular Ca2+ release (FLIPR) in SNORF72-transfected COS-7 cells; format: cell-based; conditions: SNORF72-transfected COS-7 cells, peptides at 300 nM (FIG. 8)
Target sequence in this assay (Q9GZQ4 whole entry A395T): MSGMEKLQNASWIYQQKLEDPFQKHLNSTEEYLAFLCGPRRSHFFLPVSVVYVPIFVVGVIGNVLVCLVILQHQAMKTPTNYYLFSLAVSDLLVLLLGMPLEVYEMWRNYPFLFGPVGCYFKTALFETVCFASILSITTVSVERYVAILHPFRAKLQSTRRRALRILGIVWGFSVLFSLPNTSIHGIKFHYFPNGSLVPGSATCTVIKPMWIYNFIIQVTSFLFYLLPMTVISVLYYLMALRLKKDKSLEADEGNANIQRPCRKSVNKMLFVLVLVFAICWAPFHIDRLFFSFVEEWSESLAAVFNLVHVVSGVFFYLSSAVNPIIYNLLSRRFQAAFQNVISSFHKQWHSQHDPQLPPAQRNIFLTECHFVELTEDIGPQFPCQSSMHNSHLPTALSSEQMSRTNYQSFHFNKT

Substance: FRVDEEFQSPFASQSRGYFLFRPRN-NH2 [human NMU-25, FRVDEEFQSPFASQSRGYFLFRPRN—NH2]
- Ki (SNORF72 [1]): 3 nM
- release of IP second messengers above basal (SNORF62): approximately 2 fold
- effect on intracellular Ca2+ release in vector-transfected cells (vector-transfected cells): no significant effect
- stimulation of intracellular Ca2+ release (SNORF72 [2]): stimulated
